Experimental data as given in US12497358B2, “Inhibitor of EIF2α dephosphorylation” (THE ROYAL INSTITUTION FOR THE ADVANCEMENT OF …, priority 2021, dated 2025).

What was measured:
satellite cells = assay: Ex vivo expansion of cultured cells; format: cell-based; conditions: sal003 concentrations lower than 10 μM
Protocol: Moreover, cells and single EDL myofibres were cultured in 39% Dulbecco's modified eagle medium (DMEM), 39% F12, 20% fetal calf serum (FCS) (Life Technologies), 2% UltroserG™ (Pall Life Sciences). C2C12 myoblasts were cultured in DMEM supplemented with 20% FCS. […]

[1] = system: P-elF2α dependent read-through of Atf4 uORFs (Atf4-fluc reporter) in HEK293 cells; assay: Atf4-luciferase reporter (Fluc/Rluc ratio) in transfected HEK293 cells; format: cell-based
Text: The Atf4- and Tacc3-luciferase constructs were made by cloning gBlock gene fragments (Integrated DNA Technologies) corresponding to 5′UTRs of Mus musculus Atf4 and Tacc3, fused to the 5′end of the fluc gene up to the Narl restriction enzyme site. Mutant versions of Atf4 and Tacc3 5′UTRs were designed with each ATG start codon of uORFs deleted. These 5′UTR gene fragments were cloned into Hindlll, Narl sites upstream of the firefly luciferase (fluc) gene in pGL3-promoter plasmids, thereby maintaining the final overlapping uORF with the main ORF for fluc (Promega™). FIG. 5A and FIG. 5B show a schematic of the formation of a pre-initiation complex that includes many factors including the a subunit (elF2α) that is dephosphorylated (FIG. 5A) or phosphorylated (FIG. 5B). The pre-initiation complex associates with the uORFs, where, if phosphorylated, translation initiation of the uORFs occurs upstream of Atf4 and continues to translate Atf4. However, if elF2α is dephosphorylated (FIG. 5A), no translation initiation occurs for Atf4 as the pre-initiation complex dissociates from the uORFs.
HEK293 cells were plated in 24-well plates at a density of 25,000 cells/well and incubated overnight. […] The cells were then lysed and the Fluc/Rluc ratio was determined using the Promega™ Dual-Luciferase Reporter kit (Madison, USA). […]

[2] = system: PAX7-expressing muscle stem cells (MuSCs); assay: DDX6-positive RNA granules in PAX7-expressing MuSCs, ex vivo culture, immunofluorescence; format: cell-based, mice
Protocol: (§1) Moreover, cells and single EDL myofibres were cultured in 39% Dulbecco's modified eagle medium (DMEM), 39% F12, 20% fetal calf serum (FCS) (Life Technologies), 2% UltroserG™ (Pall Life Sciences). C2C12 myoblasts were cultured in DMEM supplemented with 20% FCS. When indicated, culture conditions were supplemented with 0.1% dimethylsulfoxide (DMSO control, Sigma), 10 μM sal003 (Sigma), or 0.1-0.2 μM C15.
P-elF2α is required for the assembly of DDX6-positive(+) RNA granules in quiescent and self-renewing satellite cells. Activated muscle stem cells (MuSCs) dephosphorylate elF2α, RNA granules disassemble, and the myogenic program is activated.
Immunoassays were also performed to further confirm the effect of C15 on the dephosphorylation of elF2α. For immunofluorescence, cultured satellite cells were fixed in 4% paraformaldehyde (PFA), permeabilized with 0.2% Triton™, 50 mM NH4Cl and blocked in 5% horse serum (HS). Single EDL myofibers were fixed with 4% PFA, permeabilized with 0.1% Triton™ in PBS and blocked in 5% horse serum (HS) with 0.1% Triton™ in PBS. TA muscles were fixed for 2 hr in 0.5% PFA at 4° C. and equilibrated overnight in 20% sucrose at 4° C. Tissues were mounted in Frozen Section Compound (VWR) and flash frozen in a liquid nitrogen-cooled isopentane bath. […]

[3] = system: MuSCs isolated from skeletal muscle of Dmd^mdx mice; assay: Ex vivo culture of MuSCs from Dmd^mdx mice: PAX7 expression, myocolony size, fusion index; format: cell-based
Protocol: as §1
PAX7 expression marks MuSCs that retained stem cell properties to regenerate muscle. Under normal culture conditions, PAX7-expression is down regulated as MuSCs differentiate and lose their stem cell properties to regenerate muscle. […] Conceptually, these ex vivo results support a model by which pharmacological interventions that promote MuSC expansion (FIG. 10A, FIG. 10B, and FIG. 11) in the short term will lead to improved muscle mass and strength in the long term.
(§2) Immunoassays were also performed to further confirm the effect of C15 on the dephosphorylation of elF2α. For immunofluorescence, cultured satellite cells were fixed in 4% paraformaldehyde (PFA), permeabilized with 0.2% Triton™, 50 mM NH4Cl and blocked in 5% horse serum (HS). Single EDL myofibers were fixed with 4% PFA, permeabilized with 0.1% Triton™ in PBS and blocked in 5% horse serum (HS) with 0.1% Triton™ in PBS. TA muscles were fixed for 2 hr in 0.5% PFA at 4° C. and equilibrated overnight in 20% sucrose at 4° C. Tissues were mounted in Frozen Section Compound (VWR) and flash frozen in a liquid nitrogen-cooled isopentane bath. Transverse sections (10 μm) were permeabilized with 0.1% Triton™, 0.1M Glycine in PBS, and blocked in Mouse on Mouse (M.O.M.) reagent (Vector Labs).

[4] = system: elF2α phosphorylation in C2C12 cells; assay: Immunoblot of P-elF2α and total elF2α in C2C12 cell lysates; format: cell-based
Protocol: as §1
For immunoblotting, cell lysates were obtained in RIPA buffer (ThermoFischer Scientific) supplemented with complete protease inhibitor cocktail (Roche) and phosphatase inhibitor cocktail (Sigma). The primary antibodies used were against PAX7 (DHSB), LAMININ (Sigma L9393), MYOG (Abcam 124800 and Santacruz sc-12732), and β-ACTIN (Sigma A5441). Alexa™ Fluor-488, Alexa™ Fluor-594 and Alexa™ Fluor-647 conjugated secondary anti-mouse IgG1, anti-mouse IgG2B or anti-rabbit antibodies (Life technologies) were used for immunofluorescence. Horseradish peroxidase (HRP) conjugated anti-mouse or anti-rabbit secondary antibodies (Jackson Immunoresearch) were used with the ECL™ Prime Western Blotting Detection reagents (GE Healthcare). Densitometry of immunoblots was performed with ImageJ™.
To determine the effect of C15 on elF2α phosphorylation, C2C12 cell lysates cultured for twelve hours in the presence of sal003 (10 μM) or C15 (0.1 μM and 0.2 μM) were immunoblotted.

Dmd^mdx mice = assay: In vivo administration by osmotic pump in Dmd^mdx mouse model of Duchenne muscular dystrophy
Protocol: FIG. 20 is a schematic diagram of in vivo administration of C15 by an osmotic pump in the Dmd^mdx mouse model of Duchenne muscular dystrophy, specifically Alzet™ 2001 osmotic pumps were used to deliver 2.5 mg/kg/day of C15 with a vehicle containing 50:50 DMSO:[…] at a flow rate of 0.5 μL/hr by a subcutaneous implantation of the Alzet™ 2001 osmotic pumps into Dmd^mdx mouse, and 14 days later muscle was harvested for quantification by fluorescence of the myofibre CSA (red) and PAX7(+) (green) satellite cell compartment.
In this example, the effect of C15 on the dephosphorylated levels of elF2α was studied. Animal care practices were performed in accordance with the federal Canadian Council on Animal Care, as practiced by McGill University. All mice were maintained on a C57/BI6 background. Dmd^mdx mice, aged 8-10 weeks, were implanted (sub-cutaneously) with osmotic pumps (Alzet™) to deliver C15 at a rate of 2.5 mg/kg/day. C15 was dissolved in a 50:50 solution of DMSO:PEG400. At indicated time points, muscle was harvested for analysis by immunofluorescence.
as §2

| SMILES | ex vivo expansion of cells (satellite cells) | P-elF2α activity to enable read-through of uORFs after incubation at 37° C. (stability) ([1]; C15 10 μM, incubated at 37° C. for 0-3 weeks, HEK293 cells (FIG. 19)) | luciferase activity (Atf4-fluc reporter) ([1]; HEK293 cells, overnight, 10 μM, compared with sal003, C10 and DMSO (FIG. 6)) | DDX6(+) RNA granules in PAX7-expressing MuSCs, culture of isolated MuSCs ([2]; 0.2 μM C15, 4-day culture (FIG. 9)) | DDX6(+) RNA granules in PAX7-expressing MuSCs, culture of single myofibres ([2]; 0.2 μM C15, after 6 h (FIG. 7, 8)) | fusion index (number of nuclei per myotube) ([3]; 0.2 μM C15, 7 days (FIG. 14)) | PAX7 expression of Dmd^mdx MuSCs ([3]; 0.2 μM C15, cultured 3 days (FIG. 10, 11)) | myocolony size ([3]; 0.2 μM C15, long periods of time (7 days; FIG. 12, 13)) | P-elF2α levels (P-elF2α : total elF2α) ([4]; C2C12 cells, 12 hours, C15 0.1 to 0.2 μM vs sal003 10 μM (FIG. 15, 16)) | activity of increasing P-elF2α levels after incubation at 37° C. (stability) ([4]; C15 10 μM, incubated at 37° C. for 0-3 weeks, C2C12 cells (FIG. 17, 18)) | MuSC associated RNA granules (EDL myofibres) (Dmd^mdx mice; 2.5 mg/kg/day C15, osmotic pump s.c., two weeks (FIG. 21)) | myofiber cross sectional area of treated muscle (Dmd^mdx mice; 2.5 mg/kg/day C15, two weeks) | numbers of central nucleated myofibres (Dmd^mdx mice; 2.5 mg/kg/day C15, two weeks) | numbers of PAX7-expressing MuSCs on single EDL myofibres (Dmd^mdx mice; 2.5 mg/kg/day C15, two weeks (FIG. 23)) | numbers of PAX7-expressing MuSCs on transverse sections of tibialis anterior (TA) (Dmd^mdx mice; 2.5 mg/kg/day C15, two weeks (FIG. 24)) | numbers of PAX7-expressing MuSCs on transverse sections of diaphragm (Dmd^mdx mice; 2.5 mg/kg/day C15, two weeks (FIG. 25)) |
| --- | --- | --- | --- | --- | --- | --- | --- | --- | --- | --- | --- | --- | --- | --- | --- | --- |
| O=C(/C=C/c1ccccc1)NC(NC(=S)Nc1ccc(Cl)cc1)C(Cl)(Cl)Cl (stereo not shown) [sal003] | not possible to expand the cells ex vivo at sal003 concentrations lower than 10 μM | – | – | – | – | – | – | – | – | – | – | – | – | – | – | – |
| CC(C)(C)c1ccc(NC(=S)NC(NC(=O)/C=C/c2ccccc2)C(Cl)(Cl)Cl)cc1 (stereo not shown) [C15] | – | maintained | significantly increases luciferase activity, higher than sal003 and C10 | maintained | maintained | larger fusion index | maintain PAX7 expression | larger myocolonies | increased the P-elF2α levels to a level equivalent to 10 μM sal003 | maintained the activity of increasing P-elF2α levels | maintenance of MuSC associated RNA granules | increased | decreased | increased numbers | increased numbers | increased numbers |
